Experiments:
purified human FH = experiment: Factor H (FH) binding to gonococci by flow cytometry; assay type: cell-based; details: F62 ΔlgtD grown with 20 μg/mL CMP-NulO, human FH 20 μg/mL
Protocol: FIG. 1: CMP-KDN serves as a substrate for gonococcal LOS and incorporation of KDN on gonococcal lacto-N-neotetraose LOS enhances factor H (FH) binding. A. Incorporation of KDN by gonococci. Gonococcal strain F62 ΔlgtD (expresses lacto-N-neotetraose (LNnT) from Hepl) was grown in media containing CMP-KDN (20 μg/mL) and binding of mAb 3F11 was measured by flow cytometry. mAb 3F11 binds only to […] LNnT; substitution of the terminal Gal of LNnT, for example with a NulO, will decrease mAb 3F11 binding. Approximately 5×10^7 bacteria were incubated with mAb 3F11 tissue culture supernatants for 15 minutes at 37° C. Binding of mAb 3F11 was disclosed with anti-mouse IgM FITC (Sigma; dilution of 1:100). Bacteria grown in CMP-Neu5Ac or in media alone were used as positive and negative controls for sialylation, respectively. A representative histogram is shown in the upper panel. […] B. Factor H (FH) binding to gonococci grown in CMP-KDN. Approximately 5×10^7 bacteria grown in media alone (no sialic acid), media plus CMP-Neu5Ac (20 μg/mL; positive control for FH binding) or in media containing CMP-KDN (20 μg/mL) were incubated with purified human FH (20 μg/mL) in HBSS** for 15 minutes at 37° C. and bound FH was detected with affinity isolated goat anti-human FH followed by anti-goat IgG FITC (Sigma; 1:100 dilution). A representative histogram is shown in the upper panel. […]

[1] = biological target: T1, gonococcal LOS sialyltransferase (Lst) (Neisseria gonorrhoeae, UniProt P72074); experiment: mAb 3F11 binding by flow cytometry (incorporation of NulO on LNnT LOS by Lst); assay type: cell-based, N. gonorrhoeae F62 ΔlgtD; details: F62 ΔlgtD grown in media with 20 μg/mL CMP-NulO
T1 construct: CMP-KDN served as a substrate for gonococcal Lst in the context of live bacteria; endogenous in cells; host or cells: N. gonorrhoeae F62 ΔlgtD (live bacteria)
T1 sequence (P72074 whole entry): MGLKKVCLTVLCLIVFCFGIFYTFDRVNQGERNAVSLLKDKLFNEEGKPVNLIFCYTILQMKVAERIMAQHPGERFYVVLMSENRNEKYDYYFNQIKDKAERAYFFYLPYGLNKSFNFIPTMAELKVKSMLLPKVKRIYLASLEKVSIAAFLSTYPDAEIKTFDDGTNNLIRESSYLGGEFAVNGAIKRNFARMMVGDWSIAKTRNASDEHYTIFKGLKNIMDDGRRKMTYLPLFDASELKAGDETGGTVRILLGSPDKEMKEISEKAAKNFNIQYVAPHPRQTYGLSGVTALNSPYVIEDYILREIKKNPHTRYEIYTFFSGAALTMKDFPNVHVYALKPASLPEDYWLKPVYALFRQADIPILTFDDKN
Protocol: FIG. 1: CMP-KDN serves as a substrate for gonococcal LOS and incorporation of KDN on gonococcal lacto-N-neotetraose LOS enhances factor H (FH) binding. A. Incorporation of KDN by gonococci. Gonococcal strain F62 ΔlgtD (expresses lacto-N-neotetraose (LNnT) from Hepl) was grown in media containing CMP-KDN (20 μg/mL) and binding of mAb 3F11 was measured by flow cytometry. mAb 3F11 binds only to […] LNnT; substitution of the terminal Gal of LNnT, for example with a NulO, will decrease mAb 3F11 binding. Approximately 5×10^7 bacteria were incubated with mAb 3F11 tissue culture supernatants for 15 minutes at 37° C. Binding of mAb 3F11 was disclosed with anti-mouse IgM FITC (Sigma; dilution of 1:100). Bacteria grown in CMP-Neu5Ac or in media alone were used as positive and negative controls for sialylation, respectively. A representative histogram is shown in the upper panel. […] B. Factor H (FH) binding to gonococci grown in CMP-KDN. Approximately 5×10^7 bacteria grown in media alone (no sialic acid), media plus CMP-Neu5Ac (20 μg/mL; positive control for FH binding) or in media containing CMP-KDN (20 μg/mL) were incubated with purified human FH (20 μg/mL) in HBSS** for 15 minutes at 37° C. and bound FH was detected with affinity isolated goat anti-human FH followed by anti-goat IgG FITC (Sigma; 1:100 dilution). A representative histogram is shown in the upper panel.
FIG. 3: CMP-KDN7N3 serves as a substrate for gonococcal Lst resulting in incorporation of KDN7N3 on gonococcal lacto-N-neotetraose (LNnT) LOS—Incorporation of KDN7N3 by gonococci. Gonococcal strain F62ΔlgtD (expresses lacto-N-neotetraose (LNnT) from Hepl) was grown in media containing CMP-KDN7N3 (20 μg/mL) and binding of mAb 3F11 was measured by flow cytometry. mAb 3F11 binds only to […] LNnT; substitution of the terminal Gal of LNnT, for example with a NulO, will decrease mAb 3F11 binding. Approximately 5×10^7 bacteria were incubated with mAb 3F11 tissue culture supernatants for 15 minutes at 37° C. Binding of mAb 3F11 was disclosed with anti-mouse IgM FITC (Sigma; dilution of 1:100). […]

Nc1ccn([C@@H]2O[C@H](COP(=O)(O)O[C@@]3(C(=O)O)CC(O)[C@@H](O)C([C@H](O)[C@H](O)CO)O3)C(O)C2O)c(=O)n1 (stereo partly drawn) [CMP-KDN, cytidine 5′-monophospho-3-deoxy-D-glycero-D-galacto-nonulosonic acid]
fH binding to bacteria (purified human FH): half of that observed for Neu5Ac
binding of mAb 3F11 (use as substrate by gonococcal Lst) [1]: decreased binding of mAb 3F11 similarly
